Laboratory results reported in patent US9694016B2 (Novartis AG, priority 2013, dated 2017).

target: b-Raf (V600E) (Homo sapiens (Human), UniProt P15056, V600E); details: read-out: b-Raf IC-50; Table 2; AlphaScreen, 3 hours reaction
Sequence (P15056 whole entry V600E): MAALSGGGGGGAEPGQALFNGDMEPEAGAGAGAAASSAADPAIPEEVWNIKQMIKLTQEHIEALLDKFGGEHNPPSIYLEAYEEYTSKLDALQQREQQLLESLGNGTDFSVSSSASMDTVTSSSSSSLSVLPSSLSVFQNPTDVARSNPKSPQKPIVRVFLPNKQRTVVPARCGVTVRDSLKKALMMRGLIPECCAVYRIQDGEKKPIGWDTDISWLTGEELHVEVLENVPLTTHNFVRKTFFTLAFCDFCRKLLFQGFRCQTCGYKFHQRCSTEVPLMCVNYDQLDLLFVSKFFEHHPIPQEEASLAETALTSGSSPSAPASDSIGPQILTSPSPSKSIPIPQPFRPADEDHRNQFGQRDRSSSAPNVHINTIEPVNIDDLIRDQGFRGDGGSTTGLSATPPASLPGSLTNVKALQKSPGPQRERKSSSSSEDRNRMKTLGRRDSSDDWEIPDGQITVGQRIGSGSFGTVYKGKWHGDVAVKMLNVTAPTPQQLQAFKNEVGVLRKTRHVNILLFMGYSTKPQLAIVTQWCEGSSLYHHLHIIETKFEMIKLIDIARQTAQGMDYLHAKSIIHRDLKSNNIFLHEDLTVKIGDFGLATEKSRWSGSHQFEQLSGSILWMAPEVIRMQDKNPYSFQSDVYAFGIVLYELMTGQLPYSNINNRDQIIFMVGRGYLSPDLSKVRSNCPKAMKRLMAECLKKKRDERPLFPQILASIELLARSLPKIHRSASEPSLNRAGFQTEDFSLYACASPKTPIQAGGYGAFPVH

Row | Structure (SMILES) | IC50
1 | Cc1ccc(NC(=O)c2cc(C3CC3)on2)cc1-c1cc(N2CCOCC2)c(=O)n(C)c1 [Example 372, 5-cyclopropyl-N-(4-methyl-3-(1-methyl-5-morpholino-6-oxo-1,6-dihydropyridin-3-yl)phenyl)isoxazole-3-carboxamide] | 0.7 nM
2 | CCn1cc(C(=O)Nc2cnc(C)c(-c3cc(N4CCOCC4)c(=O)n(C)c3)c2)c(C)n1 [Example 373, N-(1′,2-dimethyl-5′-morpholino-6′-oxo-1′,6′-dihydro-[3,3′-bipyridin]-5-yl)-1-ethyl-3-methyl-1H-pyrazole-4-carboxamide] | 1100 nM
3 | Cc1nn(C)cc1C(=O)Nc1cnc(C)c(-c2cc(N3CCOCC3)c(=O)n(C)c2)c1 [Example 374, N-(1′,2-dimethyl-5′-morpholino-6′-oxo-1′,6′-dihydro-[3,3′-bipyridin]-5-yl)-1,3-dimethyl-1H-pyrazole-4-carboxamide] | 3400 nM
4 | Cc1nn(C(C)C)cc1C(=O)Nc1cnc(C)c(-c2cc(N3CCOCC3)c(=O)n(C)c2)c1 [Example 375, N-(1′,2-dimethyl-5′-morpholino-6′-oxo-1′,6′-dihydro-[3,3′-bipyridin]-5-yl)-1-isopropyl-3-methyl-1H-pyrazole-4-carboxamide] | 200 nM
5 | Cc1cc(C(=O)Nc2cnc(C)c(-c3cc(N4CCOCC4)c(=O)n(C)c3)c2)n(C)n1 [Example 376, N-(1′,2-dimethyl-5′-morpholino-6′-oxo-1′,6′-dihydro-[3,3′-bipyridin]-5-yl)-1,3-dimethyl-1H-pyrazole-5-carboxamide] | 2800 nM
6 | Cc1ncc(NC(=O)c2cc(C3CC3)nn2C)cc1-c1cc(N2CCOCC2)c(=O)n(C)c1 [Example 377, 3-cyclopropyl-N-(1′,2-dimethyl-5′-morpholino-6′-oxo-1′,6′-dihydro-[3,3′-bipyridin]-5-yl)-1-methyl-1H-pyrazole-5-carboxamide] | 200 nM
7 | Cc1ncc(NC(=O)c2cc(C3CC3)on2)cc1-c1cc(N2CCOCC2)c(=O)n(C)c1 [Example 380, 5-cyclopropyl-N-(1′,2-dimethyl-5′-morpholino-6′-oxo-1′,6′-dihydro-[3,3′-bipyridin]-5-yl)isoxazole-3-carboxamide] | 12.5 nM
8 | Cc1cc(C(=O)Nc2ccc(C)c(-c3cc(N4CCOCC4)c(=O)n(C)c3)c2)n(C)n1 [Example 381, 1,3-dimethyl-N-(4-methyl-3-(1-methyl-5-morpholino-6-oxo-1,6-dihydropyridin-3-yl)phenyl)-1H-pyrazole-5-carboxamide] | 100 nM
9 | Cc1ncc(NC(=O)c2cc(C(F)(F)F)nn2C)cc1-c1cc(N2CCOCC2)c(=O)n(C)c1 [Example 382, N-(1′,2-dimethyl-5′-morpholino-6′-oxo-1′,6′-dihydro-[3,3′-bipyridin]-5-yl)-1-methyl-3-(trifluoromethyl)-1H-pyrazole-5-carboxamide] | 900 nM
10 | Cc1nc(C(=O)Nc2cnc(C)c(-c3cc(N4CCOCC4)c(=O)n(C)c3)c2)c(C)o1 [Example 383, N-(1′,2-dimethyl-5′-morpholino-6′-oxo-1′,6′-dihydro-[3,3′-bipyridin]-5-yl)-2,5-dimethyloxazole-4-carboxamide] | 2800 nM
11 | Cc1ncc(NC(=O)c2cccc(C(C)(C)C#N)c2)cc1-c1cc(N2CCOCC2)c(=O)n(C)c1 [Example 389, 3-(2-cyanopropan-2-yl)-N-(1′,2-dimethyl-5′-morpholino-6′-oxo-1′,6′-dihydro-[3,3′-bipyridin]-5-yl)benzamide] | 64.2 nM
12 | Cc1ncc(NC(=O)c2ccnc(C(F)(F)F)c2)cc1-c1cc(N2CCOCC2)c(=O)n(C)c1 [Example 390, N-(1′,2-dimethyl-5′-morpholino-6′-oxo-1′,6′-dihydro-[3,3′-bipyridin]-5-yl)-2-(trifluoromethyl)isonicotinamide] | 5.4 nM
13 | Cc1ncc(NC(=O)c2ccnc(C(C)(F)F)c2)cc1-c1cc(N2CCOCC2)c(=O)n(C)c1 [Example 391, 2-(1,1-difluoroethyl)-N-(1′,2-dimethyl-5′-morpholino-6′-oxo-1′,6′-dihydro-[3,3′-bipyridin]-5-yl)isonicotinamide] | 12.3 nM
14 | Cc1ncc(NC(=O)c2ccnc(C(F)F)c2)cc1-c1cc(N2CCOCC2)c(=O)n(C)c1 [Example 392, 2-(difluoromethyl)-N-(1′,2-dimethyl-5′-morpholino-6′-oxo-1′,6′-dihydro-[3,3′-bipyridin]-5-yl)isonicotinamide] | 15.3 nM
15 | Cc1ncc(NC(=O)c2cccc(C(C)(F)F)c2)cc1-c1cc(N2CCOCC2)c(=O)n(C)c1 [Example 393, 3-(1,1-difluoroethyl)-N-(1′,2-dimethyl-5′-morpholino-6′-oxo-1′,6′-dihydro-[3,3′-bipyridin]-5-yl)benzamide] | 4.6 nM
16 | Cc1ncc(NC(=O)c2cccc(C(F)F)c2)cc1-c1cc(N2CCOCC2)c(=O)n(C)c1 [Example 394, 3-(difluoromethyl)-N-(1′,2-dimethyl-5′-morpholino-6′-oxo-1′,6′-dihydro-[3,3′-bipyridin]-5-yl)benzamide] | 3.6 nM
17 | CCOc1cc(C(=O)Nc2cnc(C)c(-c3cc(N4CCOCC4)c(=O)n(C)c3)c2)ccc1F [Example 395, N-(1′,2-dimethyl-5′-morpholino-6′-oxo-1′,6′-dihydro-[3,3′-bipyridin]-5-yl)-3-ethoxy-4-fluorobenzamide] | 9.8 nM

Row | Structure (SMILES) | IC50
18 | Cc1ncc(NC(=O)c2ccc(F)c(OC(C)C)c2)cc1-c1cc(N2CCOCC2)c(=O)n(C)c1 [Example 396, N-(1′,2-dimethyl-5′-morpholino-6′-oxo-1′,6′-dihydro-[3,3′-bipyridin]-5-yl)-4-fluoro-3-isopropoxybenzamide] | 10.8 nM
19 | CCOc1cccc(C(=O)Nc2cnc(C)c(-c3cc(N4CCOCC4)c(=O)n(C)c3)c2)c1 [Example 397, N-(1′,2-dimethyl-5′-morpholino-6′-oxo-1′,6′-dihydro-[3,3′-bipyridin]-5-yl)-3-ethoxybenzamide] | 10 nM
20 | Cc1ncc(NC(=O)c2cccc(OC(C)C)c2)cc1-c1cc(N2CCOCC2)c(=O)n(C)c1 [Example 398, N-(1′,2-dimethyl-5′-morpholino-6′-oxo-1′,6′-dihydro-[3,3′-bipyridin]-5-yl)-3-isopropoxybenzamide] | 8.4 nM
21 | Cc1ncc(NC(=O)c2ccnc(C(C)(C)C)c2)cc1-c1cc(N2CCOCC2)c(=O)n(C)c1 [Example 399, 2-(tert-butyl)-N-(1′,2-dimethyl-5′-morpholino-6′-oxo-1′,6′-dihydro-[3,3′-bipyridin]-5-yl)isonicotinamide] | 42.7 nM
22 | Cc1ncc(NC(=O)c2ccnc(C(C)C)c2)cc1-c1cc(N2CCOCC2)c(=O)n(C)c1 [Example 400, N-(1′,2-dimethyl-5′-morpholino-6′-oxo-1′,6′-dihydro-[3,3′-bipyridin]-5-yl)-2-isopropylisonicotinamide] | 35.1 nM
23 | CCN1CCN(c2cc(C(=O)Nc3cnc(C)c(-c4cc(N5CCOCC5)c(=O)n(C)c4)c3)cc(C(F)(F)F)c2)CC1 [Example 402, N-(1′,2-dimethyl-5′-morpholino-6′-oxo-1′,6′-dihydro-[3,3′-bipyridin]-5-yl)-3-(4-ethylpiperazin-1-yl)-5-(trifluoromethyl)benzamide] | 100 nM
24 | Cc1ncc(NC(=O)c2cccc(C3(C#N)CC3)c2Cl)cc1-c1cc(N2CCOCC2)c(=O)n(C)c1 [Example 403, 2-chloro-3-(1-cyanocyclopropyl)-N-(1′,2-dimethyl-5′-morpholino-6′-oxo-1′,6′-dihydro-[3,3′-bipyridin]-5-yl)benzamide] | 62 nM
25 | Cn1cc(-c2cc(NC(=O)c3ccnc(C(F)(F)F)c3)cnc2Cl)cc(N2CCOCC2)c1=O [Example 404, N-(2-chloro-1′-methyl-5′-morpholino-6′-oxo-1′,6′-dihydro-[3,3′-bipyridin]-5-yl)-2-(trifluoromethyl)isonicotinamide] | 4.3 nM
26 | Cn1cc(-c2cc(NC(=O)c3ccnc(C(C)(F)F)c3)cnc2Cl)cc(N2CCOCC2)c1=O [Example 405, N-(2-chloro-1′-methyl-5′-morpholino-6′-oxo-1′,6′-dihydro-[3,3-bipyridin]-5-yl)-2-(1,1-difluoroethyl)isonicotinamide] | 4.5 nM
27 | Cn1cc(-c2cc(NC(=O)c3cccc(C(F)(F)F)c3)cnc2Cl)cc(N2CCOCC2)c1=O [Example 407, N-(2-chloro-1′-methyl-5′-morpholino-6′-oxo-1′,6′-dihydro-[3,3-bipyridin]-5-yl)-3-(trifluoromethyl)benzamide] | 1.4 nM
28 | COc1ccc(C(=O)Nc2cnc(Cl)c(-c3cc(N4CCOCC4)c(=O)n(C)c3)c2)cc1C(F)(F)F [Example 408, N-(2-chloro-1′-methyl-5′-morpholino-6′-oxo-1′,6′-dihydro-[3,3-bipyridin]-5-yl)-4-methoxy-3-(trifluoromethyl)benzamide] | 6.8 nM
29 | Cn1cc(-c2cc(NC(=O)c3cccc(C(F)(F)F)c3)ccc2Cl)cc(N2CCOCC2)c1=O [Example 409, N-(4-chloro-3-(1-methyl-5-morpholino-6-oxo-1,6-dihydropyridin-3-yl)phenyl)-3-(trifluoromethyl)benzamide] | 1.7 nM
30 | Cn1cc(-c2cc(NC(=O)c3cccc(C(F)(F)F)c3)ccc2F)cc(N2CCOCC2)c1=O [Example 410] | 2 nM
31 | Cn1cc(-c2cc(NC(=O)c3cccc(C(F)(F)F)c3)ccc2C#N)cc(N2CCOCC2)c1=O [Example 411, N-(4-cyano-3-(1-methyl-5-morpholino-6-oxo-1,6-dihydropyridin-3-yl)phenyl)-3-(trifluoromethyl)benzamide] | 3100 nM
32 | Cn1cc(-c2cc(NC(=O)c3cccc(C(F)F)c3)ccc2Cl)cc(N2CCOCC2)c1=O [Example 412, N-(4-chloro-3-(1-methyl-5-morpholino-6-oxo-1,6-dihydropyridin-3-yl)phenyl)-3-(difluoromethyl)benzamide] | 0.8 nM
33 | Cn1cc(-c2cc(NC(=O)c3ccnc(C(F)(F)F)c3)ccc2Cl)cc(N2CCOCC2)c1=O [Example 413, N-(4-chloro-3-(1-methyl-5-morpholino-6-oxo-1,6-dihydropyridin-3-yl)phenyl)-2-(trifluoromethyl)isonicotinamide] | 0.4 nM
34 | Cn1cc(-c2cc(NC(=O)c3ccnc(C(C)(F)F)c3)ccc2Cl)cc(N2CCOCC2)c1=O [Example 414, N-(4-chloro-3-(1-methyl-5-morpholino-6-oxo-1,6-dihydropyridin-3-yl)phenyl)-2-(1,1-difluoroethyl)isonicotinamide] | 1.4 nM
